Assay results published in patent publication US9809843B1, “High throughput measurement of DNA base lesion repair capacity” (THE FLORIDA INTERNATIONAL UNIVERSITY BOARD OF TRUSTEES, priority 2016, dated 2017).

Tests used:
[1] = system: prostate cancer (LNCaP) cell extracts; experiment: BER capacity of prostate cancer cell extracts (fluorescence assay); type: biochemical, human; conditions: 25 μg cell extracts, inhibitor 200 μM, 37° C. 30 minutes; FIG. 7
Method: Cell pellets were re-suspended in lysis buffer that contained 10 mM Tris-HCl, pH 7.8, 200 mM KCl, 1 mM EDTA, 20% glycerol, 0.1% Nonidet P-40, 1 mM DTT with proteinase inhibitors (Roche Diagnostics Corporation, Indianapolis, Ind.). Cell suspension was subsequently subjected to rotation at 4° C. for 2 hours. After rotation, cell lysates were centrifuged at 14,000 rpm at 4° C. for 30 minutes to remove cell debris. The supernatant was recovered and further dialyzed into BER reaction buffer containing 50 mM Tris-HCl, pH 7.5, 50 mM KCl, 0.1 mM EDTA, 0.1 mg/ml bovine serum albumin, and 0.01% Nonidet P-40. Protein concentration of cell lysates was determined by Bradford assay. Cell lysates were aliquoted and stored at −80° C. for subsequent assay.
Substrates (25 nM) were pre-incubated with 25 nM purified APE1 at 37° C. for 15 minutes, and completely converted into ssDNA break intermediates for subsequent BER reactions. In vitro BER of a THF base lesion was performed by incubating APE1 precut substrate with 25 μg cell extracts in 10 μl-reaction mixtures that contained BER reaction buffer with 5 mM Mg^2+, 50 μM dNTP and 2 mM ATP in the absence or presence of inhibitors. Reaction mixtures were assembled on ice and incubated at 37° C. for 30 minutes.
10 μl-reaction mixtures were then transferred to […] black plates (Thermo Fisher Scientific, Pittsburgh, Pa.) and subjected to fluorescence reading. Each substrates/lysate/inhibitor combination was run in triplicate.
[…] plates were read at an excitation wavelength of 485±20 nm and an emission wavelength of 528±20 nm on a Synergy HTX Plate Reader (Bio-Tek, Winooski, Vt.). Data were exported to Excel for statistical analysis.
The fluorescence reading of each well needs to be abstracted by the reading from the well with 10 μl-BER reaction buffer alone before further data analysis. Normalized fluorescence data were averaged and plotted as “Average±Standard Deviation.” […]

Exo III = Exo III (Escherichia coli, UniProt P09030); conditions: 0.5 U EXO III
Exo III, sequence (P09030 whole entry): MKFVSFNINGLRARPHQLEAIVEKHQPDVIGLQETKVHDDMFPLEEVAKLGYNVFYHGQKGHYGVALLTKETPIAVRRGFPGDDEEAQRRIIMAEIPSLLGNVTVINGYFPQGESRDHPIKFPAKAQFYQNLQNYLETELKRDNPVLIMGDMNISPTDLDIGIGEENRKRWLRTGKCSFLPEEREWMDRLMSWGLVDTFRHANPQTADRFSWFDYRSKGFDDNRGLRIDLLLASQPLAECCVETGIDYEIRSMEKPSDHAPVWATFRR
Method: 0.5 U EXO III was added into each reaction and incubated at 37° C. for 10 minutes to release fluorescence signal. Reaction mixtures were incubated at 50° C. for additional 30 min to ensure the complete release of 6-FAM conjugated unrepaired DNA substrates. EDTA was added into each reaction at a final concentration of 50 mM to terminate the reactions. Fluorescence readings were measured at excitation wavelength of 485±20 nm and emission wavelength of 528±20 nm on Synergy HTX Plate Reader. Data were exported for statistical analysis. The fluorescence reading of each well were adjusted by subtracting background reading signals from a control containing substrate […]. Normalized fluorescence data were averaged and plotted with corresponding statistical errors.

SMILES | effects on reducing BER capacity of prostate cancer (LNCaP) cell extracts [1] | inhibitory effects on Exo III activity (Exo III)
NC1=NC(=O)N(C2CC(O)C(COP(=O)(O)O)O2)C(I)C1 (stereo not drawn) [NSC-124854] | not significant | do not exhibit any inhibitory effects
Cc1cc(S(=O)(=O)Nc2n[nH]c(Nc3ccc(Cl)cc3)n2)c(S)cc1Cl [NSC-666715] | not significant | do not exhibit any inhibitory effects
Cc1cc(S(=O)(=O)Nc2n[nH]c(Nc3ccc4ccccc4c3)n2)c(S)cc1Cl [NSC-666719] | not significant | do not exhibit any inhibitory effects
